Literature values in patent US20200101067A1 (IRR, Inc., priority 2013, published 2020).
Like-named read-outs stand apart in the source and are kept apart here.

Columns and labels:
[1] = not given; remark: listed apart in the source
H1 receptor = H1 receptor (Homo sapiens, UniProt P35367); conditions: acidic pH, inflamed tissue
H1 receptor, sequence (P35367 whole entry): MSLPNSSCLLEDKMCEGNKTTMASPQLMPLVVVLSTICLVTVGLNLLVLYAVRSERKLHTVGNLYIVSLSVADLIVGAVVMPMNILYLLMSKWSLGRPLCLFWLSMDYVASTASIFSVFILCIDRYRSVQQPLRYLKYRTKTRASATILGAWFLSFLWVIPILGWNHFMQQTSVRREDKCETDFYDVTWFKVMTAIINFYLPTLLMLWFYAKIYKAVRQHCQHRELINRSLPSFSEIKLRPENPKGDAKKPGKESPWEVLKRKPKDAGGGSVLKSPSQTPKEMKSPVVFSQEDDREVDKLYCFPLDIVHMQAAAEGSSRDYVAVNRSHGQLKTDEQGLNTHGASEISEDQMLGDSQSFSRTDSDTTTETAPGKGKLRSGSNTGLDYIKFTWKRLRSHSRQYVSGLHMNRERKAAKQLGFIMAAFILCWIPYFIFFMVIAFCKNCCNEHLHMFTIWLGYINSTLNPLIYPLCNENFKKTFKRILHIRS

Structure (SMILES)	Plasma concentration area under the curve profile, IV 7 mg vs approved 10 mg oral tablet (IV 7 mg)	Linear pharmacokinetics to dose (in vivo) [mg]	Steady-state level reached (in vivo)	Time to peak plasma level (in vivo) [h]	Steady-state level reached (in vivo, listed as montelukast)	Effect of a standard meal on oral bioavailability and Cmax (oral)	Dose without clinically important adverse experiences ([1]; adult patients, 22 weeks)	Dose without clinically important adverse experiences ([1]; short-term studies, approximately one week)	Rhinovirus-induced ICAM-1 and cytokine expression and viral replication (human rhinovirus; airway epithelial cells)	ICAM-1, IL-6, IL-8, TLR3 expression and NF-kappa B activation (human rhinovirus; stated as in vivo)	Time to steady state level (in vivo) [h]	Eosinophil migration (IL-4, IL-6, and IL-8)	Inflammatory mediators IL-4, IL-6, and IL-8 (IL-4, IL-6, and IL-8)	Enhanced receptor affinity over first generation mepyramine / first generation molecules (H1 receptor) [×]	Enhanced receptor affinity over first generation mepyramine / first generation molecules (H1 receptor; listed as levocetirizine)	Principal side effect at higher doses ([1]; higher doses, up to 30 mg/day)	Dose that can be safely administered ([1]; studies in humans)
CC(C)(O)c1ccccc1CC[C@@H](SCC1(CC(=O)O)CC1)c1cccc(/C=C/c2ccc3ccc(Cl)cc3n2)c1 [Montelukast, montelukast]	comparable	≤ 50	less than two	3 to 4	two	not affected	up to 200 mg/day	up to 900 mg/day	–	–	–	–	–	–	–	–	–
O=C(O)COCCN1CCN([C@H](c2ccccc2)c2ccc(Cl)cc2)CC1 [Levocetirizine, levocetirizine]	–	–	–	–	–	–	–	–	inhibits	decrease	40	decrease	decrease	5	up to 5 ×	Sedation	up to 30 mg/day
